Key:
[1] = test system: LNCaP; test: Antiproliferative activity against human LNCaP cells assessed as reduction in cel viability after 72 hrs by MTT assay; format: functional, cell-based
[2] = test system: DU-145; test: Antiproliferative activity against human DU-145 cells assessed as reduction in cel viability after 72 hrs by MTT assay; format: functional, cell-based; details: DU-145, 72 h
[3] = test system: LNCaP; test: Antitumour activity against human LNCaP cells xenografted in BALB/c nude mouse assessed as reduction in tumour weight at 45 mg/kg, po administered daily for 21 days relative to control; format: functional; details: time 21 day
[4] = test system: LNCaP; test: Antitumour activity against human LNCaP cells xenografted in BALB/c nude mouse assessed as decrease in PSA level at 45 mg/kg, po administered daily for 21 days by ELISA relative to control; format: functional; design: scale not given: the % may be the effect or the level left; details: time 21 day
[5] = Antagonist activity at GABAA receptor (unknown origin) by radioligand binding assay
[6] = Half life in human liver microsomes at 10 uM; format: ADME, Microsome
[7] = Stability in human liver microsomes assessed as parent compound remaining at 10 uM; format: ADME, Microsome; details: read-out: Stabilty

| IC50 [1] [µM] | IC50 [2] [µM] | SMILES | also measured |
| --- | --- | --- | --- |
| 16.5 | 49.3 | CNC(=O)c1ccc(N2C(=S)N(c3ccc(C#N)c(C(F)(F)F)c3)C(=O)C2(C)C)cc1F [ENZALUTAMIDE] | TGI [3]: 68%; Activity [4]: 57%; IC50 [5]: 2.7 µM; half-life at 10 µM [6]: 6.69 h; remaining at 10 µM [7]: 90.3% |
| 23.7 | > 100 | CCOC(=O)Nc1ccc2c(c1)CCC1C(=O)N(c3cnc(C#N)c(C(F)(F)F)c3)C(=S)N21 (stereo unspecified) | – |
| 90.2 | > 100 | CS(=O)(=O)Nc1ccc2c(c1)CN1C(=S)N(c3cnc(C#N)c(C(F)(F)F)c3)C(=O)C1C2 (stereo unspecified) | – |
| 54.7 | 90.1 | CCCCS(=O)(=O)Nc1ccc2c(c1)CCC1C(=O)N(c3cnc(C#N)c(C(F)(F)F)c3)C(=S)N21 (stereo unspecified) | – |
| 46 | 97.8 | CCCC(=O)Nc1ccc2c(c1)N1C(=S)N(c3cnc(C#N)c(C(F)(F)F)c3)C(=O)C1CC2 (stereo unspecified) | – |
| 32.3 | 91.4 | CCNC(=O)c1cc2c(cc1F)CC1C(=O)N(c3cnc(C#N)c(C(F)(F)F)c3)C(=S)N1C2 (stereo unspecified) | – |
| 36.7 | 83.6 | CNC(=O)c1ccc2c(c1)CN1C(=S)N(c3cnc(C#N)c(C(F)(F)F)c3)C(=O)C1C2 (stereo unspecified) | – |
| 32.1 | > 100 | N#Cc1ncc(N2C(=O)C3Cc4cc(F)c(N)cc4CN3C2=S)cc1C(F)(F)F (stereo unspecified) | – |
| 29.3 | 53.2 | CCNC(=O)c1ccc2c(c1)CN1C(=S)N(c3cnc(C#N)c(C(F)(F)F)c3)C(=O)C1C2 (stereo unspecified) | – |
| 27.9 | > 100 | CCCC(=O)Nc1cc2c(cc1F)CC1C(=O)N(c3cnc(C#N)c(C(F)(F)F)c3)C(=S)N1C2 (stereo unspecified) | – |
| 39.9 | > 100 | CCC(=O)Nc1ccc2c(c1)CCC1C(=O)N(c3cnc(C#N)c(C(F)(F)F)c3)C(=S)N21 (stereo unspecified) | – |
| 58.4 | 75.5 | COC(=O)c1ccc2c(c1)CN1C(=S)N(c3cnc(C#N)c(C(F)(F)F)c3)C(=O)C1C2 (stereo unspecified) | – |
| 28.3 | > 100 | CC(=O)Nc1cc2c(cc1F)CC1C(=O)N(c3cnc(C#N)c(C(F)(F)F)c3)C(=S)N1C2 (stereo unspecified) | – |
| 102 | > 100 | CCCCS(=O)(=O)Nc1cc2c(cc1F)CC1C(=O)N(c3cnc(C#N)c(C(F)(F)F)c3)C(=S)N1C2 (stereo unspecified) | – |
| 84.1 | 84.4 | CCCCS(=O)(=O)Nc1ccc2c(c1)CN1C(=S)N(c3cnc(C#N)c(C(F)(F)F)c3)C(=O)C1C2 (stereo unspecified) | – |
| 44.9 | 88 | CC(CO)NC(=O)c1ccc2c(c1)CN1C(=S)N(c3cnc(C#N)c(C(F)(F)F)c3)C(=O)C1C2 (stereo unspecified) | – |
| 23.1 | 54.1 | CC(=O)Nc1ccc2c(c1)CN1C(=S)N(c3cnc(C#N)c(C(F)(F)F)c3)C(=O)C1C2 (stereo unspecified) | – |
| 22.9 | 81.1 | CCC(=O)Nc1ccc2c(c1)CN1C(=S)N(c3cnc(C#N)c(C(F)(F)F)c3)C(=O)C1C2 (stereo unspecified) | – |
| 44.7 | > 100 | N#Cc1ncc(N2C(=O)C3Cc4ccc(N)cc4CN3C2=S)cc1C(F)(F)F (stereo unspecified) | – |
| > 100 | > 100 | N#Cc1ncc(N2C(=O)C3Cc4ccc(C(=O)O)cc4CN3C2=S)cc1C(F)(F)F (stereo unspecified) | – |
| 65.9 | 91.7 | CCOc1ccc2c(c1)CN1C(=S)N(c3cnc(C#N)c(C(F)(F)F)c3)C(=O)C1C2 (stereo unspecified) | – |
| 18.1 | 90.4 | CCCNC(=O)c1ccc2c(c1)CN1C(=S)N(c3cnc(C#N)c(C(F)(F)F)c3)C(=O)C1C2 (stereo unspecified) | – |
| 25.9 | > 100 | COc1ccc2c(c1)CN1C(=S)N(c3cnc(C#N)c(C(F)(F)F)c3)C(=O)C1C2 (stereo unspecified) | – |
| 12.2 | > 100 | CCOC(=O)Nc1ccc2c(c1)CN1C(=S)N(c3cnc(C#N)c(C(F)(F)F)c3)C(=O)C1C2 (stereo unspecified) | – |
| 29.1 | 83.9 | N#Cc1ncc(N2C(=O)C3Cc4ccc(C(=O)NCCO)cc4CN3C2=S)cc1C(F)(F)F (stereo unspecified) | – |
| > 100 | > 100 | CS(=O)(=O)Nc1ccc2c(c1)N1C(=S)N(c3cnc(C#N)c(C(F)(F)F)c3)C(=O)C1CC2 (stereo unspecified) | – |

More lines, now with the values behind:

| SMILES | IC50 [1] [µM] | IC50 [2] [µM] | also measured |
| --- | --- | --- | --- |
| N#Cc1ncc(N2C(=O)C3Cc4cc(Br)c(O)c(Br)c4CN3C2=S)cc1C(F)(F)F (stereo unspecified) | 60.4 | 81.1 | – |
| N#Cc1ncc(N2C(=O)C3Cc4cc(F)c(C(=O)NC5CCCCC5)cc4CN3C2=S)cc1C(F)(F)F (stereo unspecified) | 84.7 | 67.6 | – |
| CCCCOc1ccc2c(c1)CN1C(=S)N(c3cnc(C#N)c(C(F)(F)F)c3)C(=O)C1C2 (stereo unspecified) | 20 | > 100 | – |
| N#Cc1ncc(N2C(=O)C3Cc4ccc(C(=O)NC5CCCCC5)cc4CN3C2=S)cc1C(F)(F)F (stereo unspecified) | 72.3 | 92.4 | – |
| N#Cc1ncc(N2C(=O)C3Cc4ccc([N+](=O)[O-])cc4CN3C2=S)cc1C(F)(F)F (stereo unspecified) | 75.7 | > 100 | – |
| CCC(=O)Nc1cc2c(cc1F)CC1C(=O)N(c3cnc(C#N)c(C(F)(F)F)c3)C(=S)N1C2 (stereo unspecified) | 27.7 | > 100 | – |
| CS(=O)(=O)Nc1cc2c(cc1F)CC1C(=O)N(c3cnc(C#N)c(C(F)(F)F)c3)C(=S)N1C2 (stereo unspecified) | 79 | > 100 | – |
| CC(CO)NC(=O)c1cc2c(cc1F)CC1C(=O)N(c3cnc(C#N)c(C(F)(F)F)c3)C(=S)N1C2 (stereo unspecified) | 34.2 | 71.3 | – |
| COc1c(Br)cc2c(c1Br)CN1C(=S)N(c3cnc(C#N)c(C(F)(F)F)c3)C(=O)C1C2 (stereo unspecified) | 85.9 | 96.3 | – |
| CCC(=O)Nc1ccc2c(c1)N1C(=S)N(c3cnc(C#N)c(C(F)(F)F)c3)C(=O)C1CC2 (stereo unspecified) | 48.8 | > 100 | – |
| N#Cc1ncc(N2C(=O)C3Cc4ccccc4CN3C2=S)cc1C(F)(F)F (stereo unspecified) | 21.6 | > 100 | – |
| CCOC(=O)CCCOc1ccc2c(c1)CN1C(=S)N(c3cnc(C#N)c(C(F)(F)F)c3)C(=O)C1C2 (stereo unspecified) | 17 | > 100 | – |
| CS(=O)(=O)Nc1ccc2c(c1)CCC1C(=O)N(c3cnc(C#N)c(C(F)(F)F)c3)C(=S)N21 (stereo unspecified) | > 100 | > 100 | – |
| CCCCNC(=O)c1cc2c(cc1F)CC1C(=O)N(c3cnc(C#N)c(C(F)(F)F)c3)C(=S)N1C2 (stereo unspecified) | 16.3 | 93.8 | – |
| CCOC(=O)Nc1ccc2c(c1)N1C(=S)N(c3cnc(C#N)c(C(F)(F)F)c3)C(=O)C1CC2 (stereo unspecified) | 35.7 | 90.3 | – |
| CNC(=O)c1cc2c(cc1F)CC1C(=O)N(c3cnc(C#N)c(C(F)(F)F)c3)C(=S)N1C2 (stereo unspecified) | 43.8 | 67.4 | – |
| CCCCNC(=O)c1ccc2c(c1)CN1C(=S)N(c3cnc(C#N)c(C(F)(F)F)c3)C(=O)C1C2 (stereo unspecified) | 11.6 | 89.4 | – |
| CC(O)CNC(=O)c1cc2c(cc1F)CC1C(=O)N(c3cnc(C#N)c(C(F)(F)F)c3)C(=S)N1C2 (stereo unspecified) | 47.5 | 72.2 | – |
| CCCC(=O)Nc1ccc2c(c1)CN1C(=S)N(c3cnc(C#N)c(C(F)(F)F)c3)C(=O)C1C2 (stereo unspecified) | 34.2 | > 100 | – |
| CCCCS(=O)(=O)Nc1ccc2c(c1)N1C(=S)N(c3cnc(C#N)c(C(F)(F)F)c3)C(=O)C1CC2 (stereo unspecified) | 48.7 | 83.9 | – |
| N#Cc1ncc(N2C(=O)C3Cc4cc(F)c(C(=O)O)cc4CN3C2=S)cc1C(F)(F)F (stereo unspecified) | > 100 | > 100 | – |
| CCCNC(=O)c1cc2c(cc1F)CC1C(=O)N(c3cnc(C#N)c(C(F)(F)F)c3)C(=S)N1C2 (stereo unspecified) | 20.1 | 92.5 | – |
| CC(=O)Nc1ccc2c(c1)N1C(=S)N(c3cnc(C#N)c(C(F)(F)F)c3)C(=O)C1CC2 (stereo unspecified) | 89.7 | > 100 | – |
| N#Cc1ncc(N2C(=O)C3Cc4cc(F)c([N+](=O)[O-])cc4CN3C2=S)cc1C(F)(F)F (stereo unspecified) | 29 | 83.4 | – |
| COC(=O)c1cc2c(cc1F)CC1C(=O)N(c3cnc(C#N)c(C(F)(F)F)c3)C(=S)N1C2 (stereo unspecified) | 55.5 | 86.2 | – |
| CCCC(=O)Nc1ccc2c(c1)CCC1C(=O)N(c3cnc(C#N)c(C(F)(F)F)c3)C(=S)N21 (stereo unspecified) | 32.5 | 89.7 | – |
| CC(=O)Nc1ccc2c(c1)CCC1C(=O)N(c3cnc(C#N)c(C(F)(F)F)c3)C(=S)N21 (stereo unspecified) | 41.2 | > 100 | – |

From ChEMBL document CHEMBL4680224, “Discovery of pyridine tetrahydroisoquinoline thiohydantoin derivatives with low blood-brain barrier penetration as the androgen receptor antagonists” (Eur J Med Chem, 2020)
